Measured values taken from ChEMBL document CHEMBL5537135, “Novel antimicrobial peptides modified with fluorinated sulfono-γ-AA having high stability and targeting multidrug-resistant bacteria infections” (Eur J Med Chem, 2024).
Converted amounts (≈) assume the structure as drawn. Numbered stars: 1 amine (or outer) side, 2 acyl side, 3 side chain; on linkers, the order of the positions; unused ones are H or OH. Square brackets hold non-standard residues; d marks the D form. Peptide text beside a SMILES is read from it. * marks the point of attachment. X8 = NC(=O)CN(C[C@H](Cc1ccccc1)N*)S(=O)(=O)c1cc(C(F)(F)F)cc(C(F)(F)F)c1; X6 = CC(C)C[C@@H](CN(CC(N)=O)S(=O)(=O)c1cc(C(F)(F)F)cc(C(F)(F)F)c1)N*; X5 = NC(=O)CN(C[C@H](Cc1ccccc1)N*)S(=O)(=O)c1ccc(C(F)(F)F)cc1; X4 = N[C@@H](Cc1ccccc1)CN(CC(=O)[*:2])[*:1]; X7 = O=S(=O)(c1cc(C(F)(F)F)cc(C(F)(F)F)c1)*; X2 = CC(C)C[C@H](N)CN(CC(=O)[*:2])[*:1]; X1 = O=S(=O)(c1ccc(C(F)(F)F)cc1)*

Legend:
Escherichia coli = experiment: Antimicrobial activity against Escherichia coli ATCC 25922 assessed as inhibition of visible bacterial growth incubated for 18 hrs by broth-dilution method; type: functional
Bacillus subtilis = experiment: Antimicrobial activity against Bacillus subtilis ATCC 23857 assessed as inhibition of visible bacterial growth incubated for 18 hrs by broth-dilution method; type: functional
Erythrocyte = experiment: Hemolytic activity against mouse Red blood cell incubated for 1 hr; type: toxicity, cell-based
Salmonella typhimurium = experiment: Antimicrobial activity against Salmonella typhimurium ATCC 14028 assessed as inhibition of visible bacterial growth incubated for 18 hrs by broth-dilution method; type: functional, Salmonella enterica subsp. enterica serovar Typhimurium; details: Salmonella enterica
[1] = tested on: Staphylococcus epidermidis; experiment: Antimicrobial activity against Staphylococcus epidermidis ATCC 12228 assessed as inhibition of visible bacterial growth incubated for 18 hrs by broth-dilution method; type: functional
Pseudomonas aeruginosa = experiment: Antimicrobial activity against Pseudomonas aeruginosa ATCC 27853 assessed as inhibition of visible bacterial growth incubated for 18 hrs by broth-dilution method; type: functional
Staphylococcus aureus [2] = experiment: Antimicrobial activity against Staphylococcus aureus ATCC 25923 assessed as inhibition of visible bacterial growth incubated for 18 hrs by broth-dilution method; type: functional
Staphylococcus aureus [3] = experiment: Antimicrobial activity against methicillin-resistant Staphylococcus aureus ATCC 33591 assessed as inhibition of visible bacterial growth incubated for 18 hrs by broth-dilution method; type: functional
Acinetobacter baumannii = experiment: Antimicrobial activity against Acinetobacter baumannii ATCC 19606 assessed as inhibition of visible bacterial growth incubated for 18 hrs by broth-dilution method; type: functional
Staphylococcus aureus [4] = experiment: Antimicrobial activity against Staphylococcus aureus ATCC 25923 assessed as fold change in MIC in presence of salt solution; type: functional
Staphylococcus aureus [5] = experiment: Antimicrobial activity against Staphylococcus aureus ATCC 25923 assessed as reduction in bacterial growth in presence of Ca2+; type: functional
[6] = Stability in human serum assessed as half life measured for 5 hrs by RP-HPLC analysis; type: ADME, cell-free

CC(C)C[C@H](NC(=O)[C@H](C)NC(=O)[C@H](CCCCN)NC(=O)[C@H](CC(C)C)NC(=O)[C@@H](N)Cc1ccccc1)C(=O)N[C@@H](CCCCN)C(=O)N[C@@H](CCCCN)C(=O)N[C@@H](Cc1ccccc1)CN(CC(N)=O)S(=O)(=O)c1cc(C(F)(F)F)cc(C(F)(F)F)c1 (H-FLKALKK-X8)
MIC (Escherichia coli): 32 µg/mL (≈ 24.4 µM) | MIC (Bacillus subtilis): 16 µg/mL (≈ 12.2 µM) | MHC (Erythrocyte): 256 µg/mL | MIC (Salmonella typhimurium): 32 µg/mL (≈ 24.4 µM) | MIC [1]: 16 µg/mL (≈ 12.2 µM) | MIC (Pseudomonas aeruginosa): 16 µg/mL (≈ 12.2 µM) | MIC (Staphylococcus aureus [2]): 16 µg/mL (≈ 12.2 µM) | MIC (Staphylococcus aureus [3]): 16 µg/mL (≈ 12.2 µM) | MIC (Acinetobacter baumannii): 128 µg/mL (≈ 97.5 µM)

CC(C)C[C@H](NC(=O)[C@H](CC(C)C)NC(=O)[C@H](CCCCN)NC(=O)[C@H](CC(C)C)NC(=O)[C@@H](N)Cc1ccccc1)C(=O)N[C@@H](CCCCN)C(=O)N[C@@H](CCCCN)C(=O)N[C@@H](Cc1ccccc1)CN(CC(N)=O)S(=O)(=O)c1ccc(C(F)(F)F)cc1 (H-FLKLLKK-X5)
MIC (Escherichia coli): 32 µg/mL (≈ 24.9 µM) | MIC (Bacillus subtilis): 4 µg/mL (≈ 3.11 µM) | fold change (FC) (Staphylococcus aureus [4]): 0.25 | MHC (Erythrocyte): 128 µg/mL | MIC (Salmonella typhimurium): 16 µg/mL (≈ 12.4 µM) | MIC [1]: 4 µg/mL (≈ 3.11 µM) | MIC (Pseudomonas aeruginosa): 8 µg/mL (≈ 6.22 µM) | MIC (Staphylococcus aureus [2]): 8 µg/mL (≈ 6.22 µM) | MIC (Staphylococcus aureus [5]): 32 µg/mL | MIC (Staphylococcus aureus [3]): 8 µg/mL (≈ 6.22 µM) | MIC (Acinetobacter baumannii): 16 µg/mL (≈ 12.4 µM) | half-life [6]: 2.61 h

CC(C)C[C@@H](CN(CC(N)=O)S(=O)(=O)c1cc(C(F)(F)F)cc(C(F)(F)F)c1)NC(=O)[C@H](CCCCN)NC(=O)[C@H](CCCCN)NC(=O)[C@H](CC(C)C)NC(=O)[C@H](CC(C)C)NC(=O)[C@H](CCCCN)NC(=O)[C@H](CC(C)C)NC(=O)[C@@H](N)Cc1ccccc1 (H-FLKLLKK-X6)
MIC (Escherichia coli): 8 µg/mL (≈ 6.06 µM) | MIC (Bacillus subtilis): 16 µg/mL (≈ 12.1 µM) | fold change (FC) (Staphylococcus aureus [4]): 0.25 | MHC (Erythrocyte): 128 µg/mL | MIC (Salmonella typhimurium): 8 µg/mL (≈ 6.06 µM) | MIC [1]: 16 µg/mL (≈ 12.1 µM) | MIC (Pseudomonas aeruginosa): 8 µg/mL (≈ 6.06 µM) | MIC (Staphylococcus aureus [2]): 8 µg/mL (≈ 6.06 µM) | MIC (Staphylococcus aureus [5]): 32 µg/mL | MIC (Staphylococcus aureus [3]): 4 µg/mL (≈ 3.03 µM) | MIC (Acinetobacter baumannii): 8 µg/mL (≈ 6.06 µM) | half-life [6]: 2.24 h

CC(C)C[C@H](NC(=O)[C@H](CC(C)C)NC(=O)[C@H](CCCCN)NC(=O)[C@H](CC(C)C)NC(=O)[C@@H](N)Cc1ccccc1)C(=O)N[C@@H](CCCCN)C(=O)N[C@@H](CCCCN)C(=O)N[C@@H](Cc1ccccc1)CN(CC(N)=O)S(=O)(=O)c1cc(C(F)(F)F)cc(C(F)(F)F)c1 (H-FLKLLKK-X8)
MIC (Escherichia coli): 8 µg/mL (≈ 5.91 µM) | MIC (Bacillus subtilis): 4 µg/mL (≈ 2.95 µM) | MHC (Erythrocyte): 64 µg/mL | MIC (Salmonella typhimurium): 8 µg/mL (≈ 5.91 µM) | MIC [1]: 4 µg/mL (≈ 2.95 µM) | MIC (Pseudomonas aeruginosa): 16 µg/mL (≈ 11.8 µM) | MIC (Staphylococcus aureus [2]): 4 µg/mL (≈ 2.95 µM) | MIC (Staphylococcus aureus [3]): 4 µg/mL (≈ 2.95 µM) | MIC (Acinetobacter baumannii): 16 µg/mL (≈ 11.8 µM) | half-life [6]: 3.31 h

CC(C)C[C@H](NC(=O)[C@H](CC(C)C)NC(=O)[C@H](CCCCN)NC(=O)[C@H](CCCCN)NC(=O)[C@H](CC(C)C)NC(=O)[C@H](CC(C)C)NC(=O)[C@H](CCCCN)NC(=O)CN(C[C@@H](N)Cc1ccccc1)S(=O)(=O)c1ccc(C(F)(F)F)cc1)C(N)=O (X1-[X4]KLLKKLL-NH2)
MIC (Escherichia coli): 8 µg/mL (≈ 6.39 µM) | MIC (Bacillus subtilis): 4 µg/mL (≈ 3.19 µM) | fold change (FC) (Staphylococcus aureus [4]): 0.25 | MHC (Erythrocyte): 32 µg/mL | MIC (Salmonella typhimurium): 8 µg/mL (≈ 6.39 µM) | MIC [1]: 4 µg/mL (≈ 3.19 µM) | MIC (Pseudomonas aeruginosa): 8 µg/mL (≈ 6.39 µM) | MIC (Staphylococcus aureus [2]): 8 µg/mL (≈ 6.39 µM) | MIC (Staphylococcus aureus [5]): 32 µg/mL | MIC (Staphylococcus aureus [3]): 4 µg/mL (≈ 3.19 µM) | MIC (Acinetobacter baumannii): 16 µg/mL (≈ 12.8 µM) | half-life [6]: 7.96 h

CC(C)C[C@H](N)CN(CC(=O)N[C@@H](CCCCN)C(=O)N[C@@H](CC(C)C)C(=O)N[C@@H](CC(C)C)C(=O)N[C@@H](CCCCN)C(=O)N[C@@H](CCCCN)C(=O)N[C@@H](CC(C)C)C(=O)N[C@@H](CC(C)C)C(N)=O)S(=O)(=O)c1cc(C(F)(F)F)cc(C(F)(F)F)c1 (X7-[X2]KLLKKLL-NH2)
MIC (Escherichia coli): 8 µg/mL (≈ 6.22 µM) | MIC (Bacillus subtilis): 16 µg/mL (≈ 12.4 µM) | fold change (FC) (Staphylococcus aureus [4]): 0.25 | MHC (Erythrocyte): 128 µg/mL | MIC (Salmonella typhimurium): 16 µg/mL (≈ 12.4 µM) | MIC [1]: 16 µg/mL (≈ 12.4 µM) | MIC (Pseudomonas aeruginosa): 4 µg/mL (≈ 3.11 µM) | MIC (Staphylococcus aureus [2]): 8 µg/mL (≈ 6.22 µM) | MIC (Staphylococcus aureus [5]): 32 µg/mL | MIC (Staphylococcus aureus [3]): 4 µg/mL (≈ 3.11 µM) | MIC (Acinetobacter baumannii): 16 µg/mL (≈ 12.4 µM) | half-life [6]: 3.33 h
